Source: patent US20110294992A1, “METAL RESPONSIVE MRI-AGENTS” (The Regents of the University of California, priority 2010, published 2011)

Key:
[1] = Longitudinal relaxivity (r1) from T1 measurements at 60 MHz, absence of copper; format: physicochemical; details: no copper; 60 MHz, 20 mM HEPES buffer, pH 7, 37° C., 0.2 mM Gd^3+
Protocol: The longitudinal relaxivity values for the CG contrast agents in the absence or presence of copper ions were determined using T1 measurements at 60 MHz. Studies were performed at 37° C. in 20 mM HEPES buffered to pH 7, and solutions of the purified CG sensors for relaxivity experiments contained 0.2 mM Gd^3+ as determined by ICP-OES. Spectroscopic data are collected in Table 1.
Nuclear magnetic relaxation dispersion (NMRD) experiments provide supporting evidence for this proposal (vide infra).

[2] = Relaxivity response to 1 equiv Cu+ in the presence of biologically relevant anions; format: physicochemical; details: for increase in r1 in response to Cu^+ / turn-on response to Cu^+: pH 7
Protocol: FIG. 7. Relaxivity responses of CG2 to 1 equiv Cu^+ in the presence of biologically relevant anions. White bars represent CG2 relaxivities without Cu^+ in the presence of various anions. Black bars represent CG2 relaxivities with Cu^+ in the presence of different anions. Percentages in the black bars are the % increases r1. Relaxivity measurements with HEPES, citrate (0.13 mM), lactate (2.3 mM), and HCO3^− (10 mM, 25 mM), were acquired at 37° C. in 20 mM HEPES buffer, pH 7, at a proton Larmor frequency of 60 MHz. Relaxivity measurements with PBS were acquired under similar conditions using phosphate buffered saline, pH 7.4.
We also tested the copper responses of CG2-6 in the presence of physiologically relevant concentrations of common biological anions (FIG. 7). […] Carboxylate-type anions, however, can affect relaxivity responses of Cu^+-bound CG2. Addition of citrate (0.13 mM) and lactate (2.3 mM) to CG2 results in turn-on responses to Cu^+ of 220% and 71% respectively. Carbonate concentrations also affect the response of CG2; the effect of carbonate was tested at 10 mM NaHCO3 (intracellular)^104 and 25 mM NaHCO3 (extracellular)^108 and gave increases in r1 in response to Cu^+ of 190% and 140% respectively. Although the relaxivity increases observed in the presence of anions are still well within a range detectable by MRI,^109 current work is geared toward developing CG-sensors with more carboxylate functionalities incorporated into the ligand framework to minimize anion sensitivity.^55,110

CCSCCN(CCSCC)Cc1cccc(CN2CCN(CC(=O)[O-])CCN(CC(=O)[O-])CCN(CC(=O)[O-])CC2)n1.[Gd+3] [CG2]
r1 (no Cu) [1]: 1.5 mM⁻¹ s⁻¹ | increase in r1 in response to Cu^+ ([2]; 10 mM NaHCO3 (intracellular) in 20 mM HEPES): 190% | increase in r1 in response to Cu^+ ([2]; 25 mM NaHCO3 (extracellular) in 20 mM HEPES): 140% | turn-on response to Cu^+ ([2]; citrate (0.13 mM) in 20 mM HEPES, 1 equiv Cu^+): 220% | turn-on response to Cu^+ ([2]; lactate (2.3 mM) in 20 mM HEPES, 1 equiv Cu^+): 71% | increase in relaxivity in response to Cu^+ ([2]; phosphate buffered saline (PBS, 10 mM phosphate), pH 7.4, 1 equiv Cu^+): 350%
